# Assay results from patent US20100190747A1, “Fused ring compound and use thereof” (priority 2009, published 2010).
# Target: T1, delta-5-desaturase (Rattus norvegicus, UniProt Q920R3)
# T1 construct: the microsomal fraction of a rat river (10 μl), which had been diluted to 3 mg/ml; from tissue; host or cells: rat liver microsomal fraction
# Experiment: Inhibitory activity on delta-5-desaturase (rat liver microsomal fraction, 14C-eicosatrienoic acid, TLC)
# Format: biochemical
# Settings: test compound at 10 μM, room temperature, 120 minutes
# Summary of the method: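 Rat liver microsomes (3 mg/ml before addition) incubated with test compound at 10 μM, NADH, ATP, CoA and 14C-eicosatrienoic acid in phosphate buffer pH 7.4 with BSA and glutathione, 120 min at room temperature. Lipids saponified, extracted, separated by reverse-phase TLC and imaged; % inhibition reported.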
# T1 sequence (Q920R3 whole entry): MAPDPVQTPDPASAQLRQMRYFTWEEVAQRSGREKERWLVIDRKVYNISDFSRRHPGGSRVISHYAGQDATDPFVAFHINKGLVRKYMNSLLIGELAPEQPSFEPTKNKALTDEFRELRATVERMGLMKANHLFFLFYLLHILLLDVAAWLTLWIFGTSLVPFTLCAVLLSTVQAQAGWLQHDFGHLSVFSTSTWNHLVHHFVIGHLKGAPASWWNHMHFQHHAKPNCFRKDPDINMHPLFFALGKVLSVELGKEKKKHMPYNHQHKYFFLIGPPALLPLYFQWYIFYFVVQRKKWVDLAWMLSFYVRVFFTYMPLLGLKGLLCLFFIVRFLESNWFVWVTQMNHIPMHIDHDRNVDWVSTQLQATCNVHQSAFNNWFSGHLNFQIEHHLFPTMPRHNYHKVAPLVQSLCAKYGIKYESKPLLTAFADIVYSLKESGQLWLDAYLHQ
row,inhibition at 10 µM [%],Structure (SMILES)
1,98,"O=C1Cc2c(nc(OCC(F)(F)F)n(-c3ccc(OCC(F)(F)F)c(F)c3)c2=O)N1 [Example 309, 3-[3-Fluoro-4-(2,2,2-trifluoroethoxy)phenyl]-2-(2,2,2-trifluoroethoxy)-5,7-dihydro-3H-pyrrolo[2,3-d]pyrimidine-4,6-dione]"
2,99,"CCSc1nc2c(c(=O)n1-c1ccc(OCC(F)(F)F)c(F)c1)CC(=O)N2 [Example 307, 2-(Ethylsulfanyl)-3-[3-fluoro-4-(2,2,2-trifluoroethoxy)phenyl]-5,7-dihydro-3H-pyrrolo[2,3-d]pyrimidine-4,6-dione]"
3,99,"O=C1Cc2c(nc(SC3CC3)n(-c3ccc(OCC(F)(F)F)cc3)c2=O)N1 [Example 291, 2-(Cyclopropylsulfanyl)-3-[4-(2,2,2-trifluoroethoxy)phenyl]-5,7-dihydro-3H-pyrrolo[2,3-d]pyrimidine-4,6-dione]"
4,103,"CC(C)COc1nc2c(c(=O)n1-c1ccc(OCC(F)(F)F)cc1)CC(=O)N2 [Example 318, 2-(2-Methylpropoxy)-3-[4-(2,2,2-trifluoroethoxy)phenyl]-5,7-dihydro-3H-pyrrolo[2,3-d]pyrimidine-4,6-dione]"
5,100,"CSc1nc2c(c(=O)n1-c1ccc(OCC(F)(F)F)cc1)CC(=O)N2 [Example 267, 2-(Methylsulfanyl)-3-[4-(2,2,2-trifluoroethoxy)phenyl]-5,7-dihydro-3H-pyrrolo[2,3-d]pyrimidine-4,6-dione]"
6,96,"CC(C)Sc1nc2c(c(=O)n1-c1ccc(OCC(F)(F)F)cc1)CC(=O)N2 [Example 285, 2-[(1-Methylethyl)sulfanyl]-3-[4-(2,2,2-trifluoroethoxy)phenyl]-5,7-dihydro-3H-pyrrolo[2,3-d]pyrimidine-4,6-dione]"
7,102,"O=C1Cc2c(nc(SCC3CC3)n(-c3ccc(OCC(F)(F)C(F)(F)F)cc3)c2=O)N1 [Example 323, 2-[(Cyclopropylmethyl)sulfanyl]-3-[4-(2,2,3,3,3-pentafluoropropoxy)phenyl]-5,7-dihydro-3H-pyrrolo[2,3-d]pyrimidine-4,6-dione]"
8,101,"O=c1c2cc[nH]c2nc(OCC(F)F)n1-c1ccc(OCC(F)(F)F)cc1 [Example 244, 2-(2,2-Difluoroethoxy)-3-[4-(2,2,2-trifluoroethoxy)phenyl]-3,7-dihydro-4H-pyrrolo[2,3-d]pyrimidin-4-one]"
9,101,"O=C1Cc2c(nc(SCCC3CC3)n(-c3ccc(OCC(F)(F)F)cc3)c2=O)N1 [Example 329, 2-[(2-Cyclopropylethyl)sulfanyl]-3-[4-(2,2,2-trifluoroethoxy)phenyl]-5,7-dihydro-3H-pyrrolo[2,3-d]pyrimidine-4,6-dione]"
10,99,"O=C1Cc2c(nc(OCCC(F)(F)F)n(-c3ccc(OCC(F)(F)F)cc3)c2=O)N1 [Example 341, 3-[4-(2,2,2-Trifluoroethoxy)phenyl]-2-(3,3,3-trifluoropropoxy)-5,7-dihydro-3H-pyrrolo[2,3-d]pyrimidine-4,6-dione]"

# The next lines start with the compound.
row,Structure (SMILES),inhibition at 10 µM [%]
1,"N#CCCNC(=O)CCCSc1nc2cc[nH]c2c(=O)n1-c1ccc(OCC2CC2(F)F)cc1 (stereo not shown) [Example 95, N-(2-cyanoethyl)-4-[(3-{4-[(2,2-difluorocyclopropyl)methoxy]phenyl}-4-oxo-4,5-dihydro-3H-pyrrolo[3,2-d]pyrimidin-2-yl)sulfanyl]butanamide]",100
2,"NS(=O)(=O)CCCSc1nc2cc[nH]c2c(=O)n1-c1ccc(OCC(F)(F)F)cc1 [Example 120, 3-({4-Oxo-3-[4-(2,2,2-trifluoroethoxy)phenyl]-4,5-dihydro-3h-pyrrolo[3,2-d]pyrimidin-2-yl}sulfanyl)propane-1-sulfonamide]",101
3,"N#CCCCCCSc1nc2cc[nH]c2c(=O)n1-c1ccc(OCC(F)(F)F)cc1 [Example 88, 6-({4-Oxo-3-[4-(2,2,2-trifluoroethoxy)phenyl]-4,5-dihydro-3H-pyrrolo[3,2-d]pyrimidin-2-yl}sulfanyl)hexanenitrile]",100
4,"O=c1c2[nH]ccc2nc(SCCO)n1-c1ccc(OCC2CC2)cc1 [Example 144, 3-[4-(Cyclopropylmethoxy)phenyl]-2-[(2-hydroxyethyl)sulfanyl]-3,5-dihydro-4H-pyrrolo[3,2-d]pyrimidin-4-one]",101
5,"CSc1nc2[nH]ccc2c(=O)n1-c1ccc(OCC(F)(F)F)cc1 [Example 212, 2-(Methylsulfanyl)-3-[4-(2,2,2-trifluoroethoxy)phenyl]-3,7-dihydro-4H-pyrrolo[2,3-d]pyrimidin-4-one]",98
6,"CC(C)(O)CCSc1nc2cc[nH]c2c(=O)n1-c1ccc(OCC(F)(F)F)cc1 [Example 131, 2-[(3-Hydroxy-3-methylbutyl)sulfanyl]-3-[4-(2,2,2-trifluoroethoxy)phenyl]-3,5-dihydro-4H-pyrrolo[3,2-d]pyrimidin-4-one]",108
7,"N#CCCNC(=O)CCCSc1nc2[nH]ccc2c(=O)n1-c1ccc(OCC2CC2(F)F)cc1 (stereo not shown) [Example 177, N-(2-cyanoethyl)-4-[(3-{4-[(2,2-difluorocyclopropyl)methoxy]phenyl}-4-oxo-4,7-dihydro-3H-pyrrolo[2,3-d]pyrimidin-2-yl)sulfanyl]butanamide]",100
8,"CCOCCSc1nc2cc[nH]c2c(=O)n1-c1ccc(OCC(F)(F)F)cc1 [Example 74, 2-[(2-Ethoxyethyl)sulfanyl]-3-[4-(2,2,2-trifluoroethoxy)phenyl]-3,5-dihydro-4H-pyrrolo[3,2-d]pyrimidin-4-one]",101
9,"CCOCCOCCSc1nc2cc[nH]c2c(=O)n1-c1ccc(OCC2CC2)c(Cl)c1 [Example 163, 3-[3-Chloro-4-(cyclopropylmethoxy)phenyl]-2-{[2-(2-ethoxyethoxy)ethyl]sulfanyl}-3,5-dihydro-4H-pyrrolo[3,2-d]pyrimidin-4-one]",99
10,"O=c1c2[nH]ccc2nc(SCCCOC2CCOCC2)n1-c1ccc(OCC(F)(F)F)cc1 [Example 158, 2-{[3-(Tetrahydro-2H-pyran-4-yloxy)propyl]sulfanyl}-3-[4-(2,2,2-trifluoroethoxy)phenyl]-3,5-dihydro-4H-pyrrolo[3,2-d]pyrimidin-4-one]",99
11,"CS(=O)(=O)CCCSc1nc2[nH]ccc2c(=O)n1-c1ccc(OCC2CC2)cc1 [Example 215, 3-[4-(Cyclopropylmethoxy)phenyl]-2-{[3-(methylsulfonyl)propyl]sulfanyl}-3,7-dihydro-4H-pyrrolo[2,3-d]pyrimidin-4-one]",102
12,"CCSc1nc2cc[nH]c2c(=O)n1-c1ccc(OCC2CC2)cc1 [Example 153, 3-[4-(Cyclopropylmethoxy)phenyl]-2-(ethylsulfanyl)-3,5-dihydro-4H-pyrrolo[3,2-d]pyrimidin-4-one]",98
13,CCn1ccc2c(=O)n(-c3ccc(OCC(F)(F)F)cc3)c(SCCCC(=O)NCCC#N)nc21 [Example 193],100
14,"COCCOCCCSc1nc2[nH]ccc2c(=O)n1-c1ccc(OCC(F)(F)F)cc1 [Example 191, 2-{[3-(2-Methoxyethoxy)propyl]sulfanyl}-3-[4-(2,2,2-trifluoroethoxy)phenyl]-3,7-dihydro-4H-pyrrolo[2,3-d]pyrimidin-4-one]",101
15,"O=c1c2[nH]ccc2nc(SCCC2(O)CCOCC2)n1-c1ccc(OCC2CC2)cc1 [Example 155, 3-[4-(Cyclopropylmethoxy)phenyl]-2-{[2-(4-hydroxytetrahydro-2H-pyran-4-yl)ethyl]sulfanyl}-3,5-dihydro-4H-pyrrolo[3,2-d]pyrimidin-4-one]",99
16,"CC(C)(CO)NC(=O)CCCSc1nc2cc[nH]c2c(=O)n1-c1ccc(OCC(F)(F)F)cc1 [Example 100, N-(2-hydroxy-1,1-dimethylethyl)-4-({4-oxo-3-[4-(2,2,2-trifluoroethoxy)phenyl]-4,5-dihydro-3H-pyrrolo[3,2-d]pyrimidin-2-yl}sulfanyl)butanamide]",100
17,"CCOc1ccc(-n2c(SCCCCC(=O)NCCC#N)nc3cc[nH]c3c2=O)cc1 [Example 65, N-(2-cyanoethyl)-5-{[3-(4-ethoxyphenyl)-4-oxo-4,5-dihydro-3H-pyrrolo[3,2-d]pyrimidin-2-yl]sulfanyl}pentanamide]",97
18,"N#CCCCSc1nc2cc[nH]c2c(=O)n1-c1ccc(OCC(F)(F)F)cc1 [Example 86, 4-({4-Oxo-3-[4-(2,2,2-trifluoroethoxy)phenyl]-4,5-dihydro-3H-pyrrolo[3,2-d]pyrimidin-2-yl}sulfanyl)butanenitrile]",99
19,"COCCOCCCSc1nc2cc[nH]c2c(=O)n1-c1ccc(OCC(F)(F)F)cc1 [Example 78, 2-{[3-(2-Methoxyethoxy)propyl]sulfanyl}-3-[4-(2,2,2-trifluoroethoxy)phenyl]-3,5-dihydro-4H-pyrrolo[3,2-d]pyrimidin-4-one]",101
20,"CCOCCOCCSc1nc2cc[nH]c2c(=O)n1-c1ccc(OCC(F)(F)F)cc1 [Example 79, 2-{[2-(2-Ethoxyethoxy)ethyl]sulfanyl}-3-[4-(2,2,2-trifluoroethoxy)phenyl]-3,5-dihydro-4H-pyrrolo[3,2-d]pyrimidin-4-one]",99
21,"CCSc1nc2[nH]ccc2c(=O)n1-c1ccc(OCC(F)(F)F)cc1 [Example 194, 2-(Ethylsulfanyl)-3-[4-(2,2,2-trifluoroethoxy)phenyl]-3,7-dihydro-4H-pyrrolo[2,3-d]pyrimidin-4-one]",103
